pIC50: −log10 of the molar value.
Tests used:
[1] = tested on: BaF3-EGFR^L858R/T790M/C797S cells; test: BaF3 cell proliferation inhibition experiment (CCK-8); format: cell-based; conditions: Ba/F3 EGFR-L858R, 72 hours
Excerpt: BaF3 cell proliferation inhibition experiment: The compounds of the present invention have excellent inhibitory activity against the proliferation of BaF3-EGFR^L858R/T790M/C797S cells
A. Cell line: BaF3 cells with stable overexpression of wild-type genes are named BaF3-EGFR^WT, and BaF3 cells with stable overexpression of EGFR^L858R/T790M/C797S EGFR^del19/T790M/C797S EGFR^L858R/C797S and EGFR^del19/C797S mutant genes are named BaF3-EGFR^L858R/T790M/C797S BaF3-EGFR^del19/T790M/C797S BaF3-EGFR^L858R/C797S and BaF3-EGFR^del19/C797S cells, respectively. Mediums:
a) The medium was preheated in a 37° C. water bath.
b) The cryopreservation tube was taken from the liquid nitrogen tank, quickly placed in a 37° C. water bath, and melted completely within 1 minute.
c) The cell suspension was transferred to a 15 mL centrifuge tube containing a 10 mL medium and centrifuged at 1000 rpm for 4 minutes.
d) The supernatant was discarded, the cells were resuspended in a 1 mL medium and transferred to a […] culture dish containing a 10 mL medium, 20% serum and 50 ng/mL EGF were administered to the first-generation medium, and culture was conducted in a 37° C. and 5% CO2 incubator.
b) The cells in the culture dish were blown evenly with a 5 mL pipette, and 500 μL of the cells were pipetted out to be inoculated into a new […] culture dish and cultured in a 37° C. and 5% CO2 incubator.
a) The compound to be tested (10 mM stock solution) was diluted with 100% DMSO to 1 mM, and diluted with a culture solution in a 24-well plate to prepare of a working solution of 2 μM concentration.
b) The 2 μM working solution was diluted with a triple dilution method to obtain working solutions with approximate concentrations of 2 μM, 600 nM, 200 nM, 60 nM, and 20 nM.
a) The cells at the logarithmic growth phase were centrifuged at 1000 rpm for 4 minutes, resuspended with a medium (containing 10% serum and 50 ng/mL EGF), and counted.
b) The cells were inoculated into a 96-well plate with a cell density of 4000 cells/well, and placed in a 37° C. and 5% CO2 incubator for culture for 12 hours.
a) The prepared compound was added to a 96-well plate, with 100 μL per well. The final concentrations were 1 μM, 300 nM, 100 nM, 30 nM, 10 nM, and 0 nM, and the final concentration of DMSO was 0.2%. A medium served as a blank control.
b) The cells were placed in 37° C. and 5% CO2 incubator for culture for 72 hours.
(5) Cell Viability Testing
a) The 96-well cell culture plate was taken out, and 20 μL of a CCK-8 reagent (Cell Counting Kit-8, Topscience, Catalog No. C0005) was added in the dark.
b) Mixing well was conducted on a horizontal shaking table at a room temperature at 100 rpm for 5 minutes.
c) The culture plate was placed in a 37° C. constant-temperature incubator for incubation.
d) Starting from the addition of the CCK-8, the absorbance at 450 nm was read using the TECAN microplate reader at 1 hour, 2 hours, and 3 hours, respectively.
The data was analyzed using GraphPad Prism 8.0 software to obtain a fitted curve of activity of the compounds. The IC50 of the compounds was fitted from nonlinear regression equation.

[2] = Detection of oral plasma exposure in rats; format: in vivo; conditions: rat, SD rats, p.o. 10 mg/kg
Method: Detection of oral plasma exposure in rats: The compounds of the present invention have good oral in-vivo exposure in rats
After a single dose of 10 mg/kg oral administration of the compound to be tested in SD rats, blood samples were collected at different time points.
Standard curve and quality control sample preparation processing: The mixed reserve solution of the compound to be tested was taken and diluted with 50% methanol water into standard working solutions containing respective compounds with concentrations of 20, 40, 100, 200, 400, 1000, 2000, 4000, 10000, and 20000 ng/mL, as well as 60, 600, and 16000 ng/mL quality control working solutions. […] of a blank matrix was taken. […] of the standard curve working solutions and the quality control working solutions were added to prepare standard curves containing respective compounds with concentrations of 1.00, 2.00, 5.00, 10.00, 20.00, 50.00, 100.00, 200.00, 500.00, and 1000.00 ng/mL, as well as quality control samples with concentrations of 3.00, 30.00, and 800.00 ng/mL, respectively. 400 μL of acetonitrile (containing internal standard Verpmil of 2 ng/mL) was added. After vortex oscillation at 700 rcf for 10 minutes, centrifugation was conducted at 3300 rcf at 4° C. for 10 minutes. The supernatant was taken for LC-MS/MS analysis.
Unknown sample preparation processing: 50 μL of the sample to be tested was taken. 400 μL of acetonitrile (containing internal standard Verpmil of 2 ng/mL) was added. After vortex oscillation at 700 rcf for 10 minutes, centrifugation was conducted at 3300 rcf and 4° C. for 10 minutes. The supernatant was taken for LC-MS/MS analysis.

Compound `CCc1cc(Nc2ncc(Cl)c(Nc3ccc(C)c(C)c3P(C)(C)=O)n2)c(OC)cc1N1CCC(N2CCN(C)CC2)CC1` [Comparative Compound A, reference compound] has a pIC50 [1] of 7.32.

With `CCc1cc(Nc2ncc(Cl)c(Nc3ccc(C)c(C)c3P(C)(C)=O)n2)c(OC)cc1N1CCC2(CC1)CC(N(C)C)C2` [Compound 6, (6-((5-chloro-2-((4-(2-(dimethylamino)-7-azaspiro[3.5]nonan-7-yl)-5-ethyl-2-methoxyphenyl)amino)pyrimidin-4-yl)amino)-2,3-dimethylphenyl)dimethylphosphine oxide] the AUC(0-t) [2] was 13800 ng·h/mL, the Cmax [2] was 866 ng/mL and the Tmax [2] was 8 h. It also gave a half-life [2] of 583 min, an AUC(0-inf) ([2]; read-out: AUCINF—obs) of 17700 ng·h/mL and a pIC50 [1] of 7.17.

With `CCc1cc(Nc2ncc(Cl)c(Nc3ccc(C)c(C)c3P(C)(C)=O)n2)c(OC)cc1N1CC2(CCN(C)CC2)C1` [Compound 24, (6-((5-Chloro-2-((5-ethyl-2-methoxy-4-(7-methyl-2,7-diazaspiro[3.5]non-2-yl)phenyl)amino)pyrimidin-4-yl)amino)-2,3-dimethylphenyl)dimethylphosphine oxide] the AUC(0-t) [2] was 7870 ng·h/mL, the Cmax [2] was 505 ng/mL and the Tmax [2] was 9 h. For the same compound, the half-life [2] was 569 min and the pIC50 [1] was 7.36.

`CCc1cc(Nc2ncc(Cl)c(Nc3ccc(C)c(C)c3P(C)(C)=O)n2)c(OC)cc1N1CCC(N2C[C@H]3CC[C@@H](C2)N3C)CC1` [Compound 51, (6-((5-chloro-2-((5-ethyl-2-methoxy-4-(4-((1R,5S)-8-methyl-3,8-diazabicyclo[3.2.1]octan-3-yl)piperidin-1-yl)phenyl)amino)pyrimidin-4-yl)amino)-2,3-dimethylphenyl)dimethylphosphine oxide] gave an AUC(0-t) [2] of 20700 ng·h/mL, a Cmax [2] of 1220 ng/mL and a Tmax [2] of 4 h. The half-life [2] was 568 min and the pIC50 [1] was 6.88.

From US20250101052A1, “COMPOUND FOR EGFR KINASE INHIBITOR, COMPOSITION, AND USE THEREOF” (INNOVATION INSTITUTE FOR ARTIFICIAL INTELLIGENCE IN …, priority 2021, published 2025)
